Assay results reported in patent US12649734B2, “Bioavailable protein disulfide isomerase inhibitors” (THE CLEVELAND CLINIC FOUNDATION, priority 2020, dated 2026).

How the values were obtained:
MM1.S-luc = assay: Chou and Talalay drug combination test with BTZ; type: cell-based, human; conditions: combined with BTZ; lower dose range affecting 70% of myeloma cells or less
Procedure: Cell vi-ability and LD50 for inhibitors were measured in 96 well culture plates (2×10^4 cells/well) after 72 h of treatment using CellTiter-Glo® Luminescent Cell Viability Assay (Promega, Madison, WI, USA). (A) Cell survival assay with MM1.S.luc and BTZ-resistant MM1.S.luc cells. […] (C) Comparison of PDIA1 protein levels in MM1.S.luc and MM1.S.luc BTZ-resistant cells. Band intensity was calculated with Image Lab Version 5.2.1. (D) Cell survival assay with 5TGM1.luc and (E) BTZ-resistant 5TGM1.luc cells. (F) MM1.S cell line was exposed to CCF642-34, and BTZ for 72 h for synergistic drug combination test according to Chou and Talalay method. If the […] remained less than 1, the two drugs were determined as synergistic. […] The number of colony-forming units were plotted for each treatment.

MM1.S cells = assay: ER stress response and apoptosis markers by immunoblotting; type: cell-based, human; conditions: 3 μM, 4 h
Procedure: FIGS. 6A-6C provide graphs and images showing PDIA1 inhibition by CCF642 analogues induce acute endoplasmic reticulum (ER) stress response and lead to apoptosis. Multiple myeloma cells (MM1.S) were treated with 3 μM of CCF642, -34, -37, -39, -34-A, and Tunicamycin (as a control). The status of ER sensors (XBP-1S, IRE1α oligomerization, and induction of C/EBP homology protein (CHOP)) along with apoptosis markers (cleaved caspase 3 and PARP1) were monitored. (A) MM1.S cells were treated for 4 h with CCF642 and its indicated analogues. (B) MM1.S cells were treated with CCF642-34 in a time course. (C) MM1.S, MM1.S.luc, and BTZ-resistant MM1.S.luc cells were stained with the H2DCFDA ROS detection and then treated with 2.5 μM CCF642-34 up to 4 h.
Immunoblotting: Immunoblotting was performed as described previously (Dallas et al., Blood, 93, 1697-1706 (1999)) using primary antibodies against PDIA1 (Cat #3501), XBP1-S (Cat #12782); IRE1α (Cat #3294), C/EBP homologous protein (CHOP) (Cat #5554), Caspase-3 (Cat #9665), PARP1 (Cat #9542), and GAPDH (Cat #3683) purchased from Cell Signaling Technology, Inc. (Danvers, MA, USA) and used at 1:1000 dilution, unless mentioned otherwise.

[1] = system: myeloma cells (MM1.S, MM1.S.LUC, BTZ-resistant MM1.S.LUC); assay: ROS detection (carboxy-H2DCFDA); type: cell-based, human; conditions: 2.5 μM, peaking between 2-3 h
Procedure: ROS detection: MM1.S, MM1.S.LUC, and BTZ-resistant MM1.S.LUC cells were washed with DPBS and treated with 5 μM carboxy-H2DCFDA (Molecular Probes) for 45 min at 37° C. The cells were then washed 3 times in DPBS and followed by 2.5 μM CCF642-34 treatment up to 4 h. After the incubation, the cells were washed 3 times and the intracellular ROS was quantified (excitation=493 nm; […]) using a BioTek Synergy plate reader (BioTek Instruments, Inc., Winooski, VT, USA).

PDIA1 = PDIA1 (Homo sapiens, UniProt P07237); assay: Target validation in cells with biotinylated analogues (streptavidin blot, pull down, LCMS); type: cell-based; conditions: streptavidin blot and pull down of treated MM1.S cells
Procedure: FIGS. 4A-4G provide graphs and images showing that model-based design improves potency and selectivity of protein disulfide isomerase A1 (PDIA1) inhibitors. (A) Ribbon diagram of CCF642-34 docked onto PDIA1. (B) Two-dimensional structure of modified CCF642 pharmacophore, where R represents amino acids tryptophan, tyrosine, phenylalanine, histidine, proline, or alanine. (C) PDIA1/PH4B activity assay was performed in the absence or presence of CCF642 or (D) CCF642-34. In time-dependent inhibition of di-E-GSSG, reduction was monitored for 1 h by the increase in fluorescence, and the relative fluorescence unit was plotted as a function of time. (E-F) The observed rate constant for inhibition, kobs, at each concentration determined from the slope of kinetic data presented in panel C and D. The kobs values are re-plotted against inhibitor concentration and fitted to a hyperbolic equation, kobs=k2[I]/(Ki+[I]), to obtain values for Ki and k2 in GraphPad Prism v8.0.2. The concentration of drug is indicated on each curve, for (E) 642 and (F) CCF642-34. (G) Target validation. […]
Mass spectrometry: Tryptic peptide mixtures were analyzed by online LC-coupled tandem mass spectrometry (LCMS/MS) on an Orbitrap mass spectrometer (Thermo Fisher) as described previously. […] A peak list was created for each analyzed fraction (i.e., gel slice) and individual Sequest searches were performed for each fraction. […]

Chain of PDIA1 (P07237 18-508): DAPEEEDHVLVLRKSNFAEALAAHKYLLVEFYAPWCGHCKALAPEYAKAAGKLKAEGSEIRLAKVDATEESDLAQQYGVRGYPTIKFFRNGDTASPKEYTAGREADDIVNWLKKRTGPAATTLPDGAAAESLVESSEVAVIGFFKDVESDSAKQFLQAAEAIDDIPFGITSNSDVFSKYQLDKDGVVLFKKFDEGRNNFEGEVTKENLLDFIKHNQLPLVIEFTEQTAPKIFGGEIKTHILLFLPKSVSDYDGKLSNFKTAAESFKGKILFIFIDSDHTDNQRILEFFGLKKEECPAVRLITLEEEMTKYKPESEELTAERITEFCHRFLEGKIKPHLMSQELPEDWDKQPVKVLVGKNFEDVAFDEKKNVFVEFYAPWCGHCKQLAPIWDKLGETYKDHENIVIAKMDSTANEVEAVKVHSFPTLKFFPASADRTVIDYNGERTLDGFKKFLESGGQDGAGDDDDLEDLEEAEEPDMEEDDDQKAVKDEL

SMILES: NC(CC1CNc2ccccc21)C(=O)NCCCOc1ccc(N2C(=O)/C(=C/c3ccc([N+](=O)[O-])s3)SC2=S)cc1 (stereo not shown) [CCF642-34]
- combination index (CI) (MM1.S-luc): below 1
- ER stress response (induction of XBP-1S and CHOP) (MM1.S cells): induced a robust ER stress response
- increase of reactive oxygen species (ROS) [1]: 4-6 fold
- binding selectivity in MM1.S cells (PDIA1): remarkable selectivity for PDIA1
